The subject of test [1] is Human alphaherpesvirus 1. Nature of the test: Reduction of titer of Herpes simplex type-1 virus after 2 hr of incubation at 0.01% concentration. The test is classed as functional.
Test [2] has as its system Human alphaherpesvirus 1. Nature of the test: Reduction of titer of Herpes simplex type-1 virus after 2 hr of incubation at 0.1% concentration. The test is classed as functional.

`CN1c2cc(N)ccc2Cc2ccc(N)cc21`: the TCID50 was determined as 1.6 in test [1] and 3.7 in test [2].

These data come from ChEMBL document CHEMBL1131604, “3,6-Diamino-10-methylacridan: uncharged precursor of acriflavine and its unique antimicrobial activity” (1998).
